Like-named read-outs stand apart in the source and are kept apart here.
How the values were obtained:
CD45RA− memory T cells [1] = assay type: cell-based, human; settings: for IFNγ production WITH IL15 X3, CD45RA− / IFNγ production WITH IL15 X3, CD45RA− CD3+ / IFNγ production WITH IL15 X3, CD45RA− CD3+ CD4+ / IFNγ production WITH IL15 X3, CD45RA− CD3+ CD8+ / FOLD INCREASE OF IFNγ PRODUCTION, CD45RA− / FOLD INCREASE OF IFNγ PRODUCTION, CD45RA− CD3+ / FOLD INCREASE OF IFNγ PRODUCTION, CD45RA− CD3+ CD4+ / FOLD INCREASE OF IFNγ PRODUCTION, CD45RA− CD3+ CD8+: three peptivators
CD45RA− memory T cells [2] = test: Phenotypic characterization of CD45RA− memory T cells in the presence of IL-15 (Table 11); assay type: cell-based, human; settings: for Fold change CD127lowCD25+ (Treg): CD45RA−CD4+ subset
[3] = DAY 3 (72 hours) with IL-15 50 ng/ml
[4] = DAY 3, with minus without IL-15, three peptivators
[5] = O/N, with minus without IL-15, three peptivators
[6] = CD3+ subset, IL-15 for 72 hours
[7] = CD4+ subset, IL-15 for 72 hours
[8] = CD8+ subset, IL-15 for 72 hours
[9] = IL-15 72 hours vs control with no cytokine

IL15: cytokine fundamental for memory T cells that induces the activation, the proliferation and the survival of T cells
IFNγ production WITH IL15 X3, CD45RA− (CD45RA− memory T cells [1]; [3]): 1.9
IFNγ production WITH IL15 X3, CD45RA− CD3+ (CD45RA− memory T cells [1]; [3]): 1.7
IFNγ production WITH IL15 X3, CD45RA− CD3+ CD4+ (CD45RA− memory T cells [1]; [3]): 1.5
IFNγ production WITH IL15 X3, CD45RA− CD3+ CD8+ (CD45RA− memory T cells [1]; [3]): 2.7
IFNγ production W-WO, CD45RA− (CD45RA− memory T cells [1]; [4]): 1.6
IFNγ production W-WO, CD45RA− CD3+ (CD45RA− memory T cells [1]; [4]): 1.4
IFNγ production W-WO, CD45RA− CD3+ CD4+ (CD45RA− memory T cells [1]; [4]): 1.1
IFNγ production W-WO, CD45RA− CD3+ CD8+ (CD45RA− memory T cells [1]; [4]): 2.4
FOLD INCREASE OF IFNγ PRODUCTION, CD45RA− (CD45RA− memory T cells [1]; DAY 3 with IL-15 vs without): 5.3 fold
FOLD INCREASE OF IFNγ PRODUCTION, CD45RA− CD3+ (CD45RA− memory T cells [1]; DAY 3 with IL-15 vs without): 5.8 fold
FOLD INCREASE OF IFNγ PRODUCTION, CD45RA− CD3+ CD4+ (CD45RA− memory T cells [1]; DAY 3 with IL-15 vs without): 3.8 fold
FOLD INCREASE OF IFNγ PRODUCTION, CD45RA− CD3+ CD8+ (CD45RA− memory T cells [1]; DAY 3 with IL-15 vs without): 11.6 fold
IFNγ production WITH IL15 X3, CD45RA− (CD45RA− memory T cells [1]; O/N with IL-15 50 ng/ml): 3.8
IFNγ production WITH IL15 X3, CD45RA− CD3+ (CD45RA− memory T cells [1]; O/N with IL-15 50 ng/ml): 3.8
IFNγ production WITH IL15 X3, CD45RA− CD3+ CD4+ (CD45RA− memory T cells [1]; O/N with IL-15 50 ng/ml): 3.8
IFNγ production WITH IL15 X3, CD45RA− CD3+ CD8+ (CD45RA− memory T cells [1]; O/N with IL-15 50 ng/ml): 4.6
FOLD INCREASE OF IFNγ PRODUCTION, CD45RA− (CD45RA− memory T cells [1]; O/N with IL-15 vs without): 19.2 fold
FOLD INCREASE OF IFNγ PRODUCTION, CD45RA− CD3+ (CD45RA− memory T cells [1]; O/N with IL-15 vs without): 13.6 fold
FOLD INCREASE OF IFNγ PRODUCTION, CD45RA− CD3+ CD4+ (CD45RA− memory T cells [1]; O/N with IL-15 vs without): 12.5 fold
FOLD INCREASE OF IFNγ PRODUCTION, CD45RA− CD3+ CD8+ (CD45RA− memory T cells [1]; O/N with IL-15 vs without): 14.8 fold
IFNγ production W-WO, CD45RA− (CD45RA− memory T cells [1]; [5]): 3.6
IFNγ production W-WO, CD45RA− CD3+ (CD45RA− memory T cells [1]; [5]): 3.5
IFNγ production W-WO, CD45RA− CD3+ CD4+ (CD45RA− memory T cells [1]; [5]): 3.5
IFNγ production W-WO, CD45RA− CD3+ CD8+ (CD45RA− memory T cells [1]; [5]): 4.3
% Memory T cells, % CD45RA− (CD45RA− memory T cells [1]; WITH IL15 PEPX3 72 hours): 84%
% Memory T cells, % CD45RA−CD3+ (CD45RA− memory T cells [1]; WITH IL15 PEPX3 72 hours): 95.1%
% Memory T cells, % CD45RA−CD3+ CD4+ (CD45RA− memory T cells [1]; WITH IL15 PEPX3 72 hours): 91.2%
% Memory T cells, % CD45RA−CD3+ CD8+ (CD45RA− memory T cells [1]; WITH IL15 PEPX3 72 hours): 3.45%
% Memory T cells, % CD45RA− (CD45RA− memory T cells [1]; WITH IL15 PEPX3 o/n): 97.7%
% Memory T cells, % CD45RA−CD3+ (CD45RA− memory T cells [1]; WITH IL15 PEPX3 o/n): 94.9%
% Memory T cells, % CD45RA−CD3+ CD4+ (CD45RA− memory T cells [1]; WITH IL15 PEPX3 o/n): 91%
% Memory T cells, % CD45RA−CD3+ CD8+ (CD45RA− memory T cells [1]; WITH IL15 PEPX3 o/n): 6.23%
Fold change CD25+ (T cell activation marker) (CD45RA− memory T cells [2]; [6]): 13.16
Fold change CD69+ (T cell activation marker) (CD45RA− memory T cells [2]; [6]): 26
Fold change HLA-DR+ high (T cell activation marker) (CD45RA− memory T cells [2]; [6]): 1.21
Fold change NKG2A+ (T cell exhaustion marker) (CD45RA− memory T cells [2]; [6]): 0.77
Fold change PD1+ high (T cell exhaustion marker) (CD45RA− memory T cells [2]; [6]): 3.43
Fold change CD25+ (T cell activation marker) (CD45RA− memory T cells [2]; CD3+ subset, IL-15 o/n): 2.11
Fold change CD69+ (T cell activation marker) (CD45RA− memory T cells [2]; CD3+ subset, IL-15 o/n): 3.82
Fold change HLA-DR+ high (T cell activation marker) (CD45RA− memory T cells [2]; CD3+ subset, IL-15 o/n): 1.11
Fold change NKG2A+ (T cell exhaustion marker) (CD45RA− memory T cells [2]; CD3+ subset, IL-15 o/n): 0.61
Fold change PD1+ high (T cell exhaustion marker) (CD45RA− memory T cells [2]; CD3+ subset, IL-15 o/n): 1.43
Fold change CD25+ (T cell activation marker) (CD45RA− memory T cells [2]; [7]): 9.88
Fold change CD69+ (T cell activation marker) (CD45RA− memory T cells [2]; [7]): 27.82
Fold change HLA-DR+ high (T cell activation marker) (CD45RA− memory T cells [2]; [7]): 1.22
Fold change NKG2A+ (T cell exhaustion marker) (CD45RA− memory T cells [2]; [7]): 2.67
Fold change PD1+ high (T cell exhaustion marker) (CD45RA− memory T cells [2]; [7]): 3.41
Fold change CD25+ (T cell activation marker) (CD45RA− memory T cells [2]; CD4+ subset, IL-15 o/n): 2.12
Fold change CD69+ (T cell activation marker) (CD45RA− memory T cells [2]; CD4+ subset, IL-15 o/n): 4.48
Fold change HLA-DR+ high (T cell activation marker) (CD45RA− memory T cells [2]; CD4+ subset, IL-15 o/n): 0.97
Fold change NKG2A+ (T cell exhaustion marker) (CD45RA− memory T cells [2]; CD4+ subset, IL-15 o/n): 0.39
Fold change PD1+ high (T cell exhaustion marker) (CD45RA− memory T cells [2]; CD4+ subset, IL-15 o/n): 1.35
Fold change CD25+ (T cell activation marker) (CD45RA− memory T cells [2]; [8]): 105
Fold change CD69+ (T cell activation marker) (CD45RA− memory T cells [2]; [8]): 6.48
Fold change HLA-DR+ high (T cell activation marker) (CD45RA− memory T cells [2]; [8]): 1.61
Fold change NKG2A+ (T cell exhaustion marker) (CD45RA− memory T cells [2]; [8]): 1.23
Fold change PD1+ high (T cell exhaustion marker) (CD45RA− memory T cells [2]; [8]): 2.97
Fold change CD25+ (T cell activation marker) (CD45RA− memory T cells [2]; CD8+ subset, IL-15 o/n): 14.27
Fold change CD69+ (T cell activation marker) (CD45RA− memory T cells [2]; CD8+ subset, IL-15 o/n): 2.10
Fold change HLA-DR+ high (T cell activation marker) (CD45RA− memory T cells [2]; CD8+ subset, IL-15 o/n): 1.32
Fold change NKG2A+ (T cell exhaustion marker) (CD45RA− memory T cells [2]; CD8+ subset, IL-15 o/n): 0.73
Fold change PD1+ high (T cell exhaustion marker) (CD45RA− memory T cells [2]; CD8+ subset, IL-15 o/n): 1.51
Fold change CD127lowCD25+ (Treg) (CD45RA− memory T cells [2]; IL-15 for 72 hours vs day 0 WO IL15): 7.88
Fold change CD127lowCD25+ (Treg) (CD45RA− memory T cells [2]; IL-15 o/n vs day 0 WO IL15): 1.85
Fold time change of exhaustion marker NKG2A, CD45RA−CD3+ cells (CD45RA− memory T cells [2]; IL-15 72 hours): 0.77 fold
Fold time change of exhaustion marker PD-1, CD45RA−CD3+ cells (CD45RA− memory T cells [2]; IL-15 72 hours): 3.43 fold
Fold increase of activation marker CD25, CD45RA− CD3+ cells (CD45RA− memory T cells [2]; [9]): 13.26 fold
Fold increase of activation marker CD69, CD45RA− CD3+ cells (CD45RA− memory T cells [2]; [9]): 26 fold

From US20230372481A1 (priority 2020, published 2023)
